For test [1], the system named is CCRF-CEM. Nature of the test: Compound was evaluated for antiviral activity against HIV-1 (IIIB) infected CEM cells. The test is classed as functional, cell-based. To be noted: Homo sapiens.
Test [2] is described as follows: Compound was evaluated cytotoxicity against moloney sarcoma virus (MSV) infected C3H cell cultures. The test is classed as functional. To be noted: Mus musculus.
Test [3] is described as follows: Compound was evaluated minimum inhibitory concentration against moloney sarcoma virus (MSV) infected C3H cell cultures. Format: functional. Particulars: Mus musculus.
A short description of test [4]: Ratio of CC50/EC50 was calculated. Format: functional.
In test [5] the test system is CCRF-CEM. Nature of the test: Compound was evaluated for antiviral activity against HIV-2 (ROD) infected CEM cells. The test is classed as functional, cell-based. To be noted: Homo sapiens.
The test system of test [6] is CCRF-CEM. Nature of the test: Compound was evaluated for cytotoxic activity against CEM cells. The test is classed as functional. To be noted: Homo sapiens.

In brackets after ≈: the same amount, converted by molar mass.

For orientation: EC50 means the concentration at which the effect is half-maximal. As usually defined, the CC50 is the concentration giving 50% cytotoxicity. A higher CC50 goes with lower toxicity to the cells. For the compound `CC(NP(=O)(OCC1C=CC(n2cnc3c(N)ncnc32)O1)Oc1ccccc1)C(=O)OCc1ccccc1` (configuration not stated), the EC50 in the test on CCRF-CEM [1] and in the test with CCRF-CEM [5] was 0.008 µM throughout. Besides, the CC50 is > 4 µM in test [2] and 1.9 µM in the test on CCRF-CEM [6]. This compound returned an MIC in test [3] of 0.2 µM (≈ 0.11 µg/mL). Moreover, the Selectivity index in test [4] was 237.

Turning to `COC(=O)C(C)NP(=O)(OCC1C=CC(n2cnc3c(N)ncnc32)O1)Oc1ccccc1` (configuration not stated), the EC50 in the test with CCRF-CEM [1] was 0.006 µM; with CCRF-CEM [5], 0.018 µM. Further, the CC50 in test [2] is > 100 µM; in the test with CCRF-CEM [6], 3.8 µM. Besides, the MIC in test [3] was 9.4 µM (≈ 4.46 µg/mL). The Selectivity index in test [4] is 633.

`Cc1cn([C@H]2C[C@H](N=[N+]=[N-])[C@@H](CO)O2)c(=O)[nH]c1=O` [ZIDOVUDINE]: the CC50 in test [2] is > 20 µM; with CCRF-CEM [6] it was > 100 µM. For the same compound, the MIC in test [3] amounted to 0.02 µM (≈ 0.00534 µg/mL). For the same compound, the Selectivity index in test [4] is > 20000.

With `Nc1ncnc2c1ncn2[C@H]1C=C[C@@H](CO)O1`, the EC50 in the test with CCRF-CEM [1] and in the test on CCRF-CEM [5] was 20 µM throughout. In addition, the CC50 was > 100 µM in test [2] and 91 µM in the test on CCRF-CEM [6]. In test [3], this compound returned an MIC of 31 µM (≈ 7.23 µg/mL). In addition, the Selectivity index in test [4] was 4.5.

Values taken from ChEMBL document CHEMBL1129180, “Phosphoramidate derivatives of 2,3-didehydro-2,3-dideoxyadenosine [d4A] have markedly improved anti-HIV potency and selectivity” (Bioorg Med Chem Lett, 1996).
